Laboratory results published in patent US20150219543A1, “CELL EVALUATION METHOD” (HAMAMATSU PHOTONICS K.K., priority 2014, published 2015).

Tested on: human living fibroblast-derived 253G1 iPS cell strain
Experiment: Physical cell length (cell thickness) by reflecting quantitative phase microscope
Type: cell-based
Details: 253G1 iPS cells on feeder, medium with 12.5 μM retinoic acid from 2nd day after seeding, further cultured 4 days (differentiated cell)
Protocol: On a 35 mm-diameter glass bottom dish with antireflection coating, a human living fibroblast-derived 253G1 iPS cell strain was seeded at 10-20 colonies/dish, and cultured on a feeder using a medium containing a final concentration of 4 ng/mL of human basic fibroblast growth factor (Primate ES Medium, ReproCELL Incorporated, Trade name: RCHEMD001). The size of one colony was approximately 200 μm. For the feeder cell, a mouse lung fibroblast cell was used. The cell was cultured until the 3rd day after the seeding. The medium was exchanged once a day.
The sample for differentiation of the iPS cell was transferred to a medium containing a final concentration of 4 ng/mL of human basic fibroblast growth factor and 12.5 μM of retinoic acid (Primate ES Medium) on the 2nd day after the seeding, and further cultured for 4 days. Generally, retinoic acid is used as a reagent for inducing differentiation. […]
For the cells in a 60 μm×80 μm visual field, three-dimensional data was obtained at intervals of 0.125 μm in horizontal direction and 0.32 μm in vertical direction using a reflecting quantitative phase microscope, and a tomographic image was produced from the obtained data. […] From the obtained bottom and surface shapes, a cell thickness (physical length) was measured to calculate a mean value.

## CC1=C(/C=C/C(C)=C/C=C/C(C)=C/C(=O)O)C(C)(C)CCC1 [retinoic acid]
  Mean value of the physical cell length: 6.25 μm
